Structures are written as SMILES. Where two headings read alike, the source gives them in different places.

One may read the IC50 as the concentration that gives 50% inhibition. Lower therefore signals greater potency in that assay. Usually ED50 stands for the midpoint of the dose-response relation.

Experiment [1] addresses T1, NK-2 receptors (Cavia porcellus, UniProt Q64077).
T1 construct: the NK-2 receptors present in the gall-bladder preparations; from tissue; host or cells: Pirbright-White guinea pig: isolated gall-bladder (A2); anaesthetised whole animal (A3)
T1 sequence (Q64077 1-402): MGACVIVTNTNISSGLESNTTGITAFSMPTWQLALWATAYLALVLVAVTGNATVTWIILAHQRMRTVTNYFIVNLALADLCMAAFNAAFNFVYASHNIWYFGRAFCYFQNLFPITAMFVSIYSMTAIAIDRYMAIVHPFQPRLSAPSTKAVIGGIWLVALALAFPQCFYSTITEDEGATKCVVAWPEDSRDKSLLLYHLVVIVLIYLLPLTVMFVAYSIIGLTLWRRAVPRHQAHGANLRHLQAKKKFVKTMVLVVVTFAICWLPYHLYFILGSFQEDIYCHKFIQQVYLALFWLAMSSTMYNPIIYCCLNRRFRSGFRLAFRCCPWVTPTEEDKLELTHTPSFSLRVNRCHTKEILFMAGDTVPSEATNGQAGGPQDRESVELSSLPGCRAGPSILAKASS
Description: Functional NK-2 antagonism on isolated guinea pig gall-bladder preparations (NKA-induced contraction). The format is cell-based. The following applies: inhibition of contraction caused by NKA 0.1 μmol/l; two hours' incubation; Pirbright-White guinea pig gall-bladder. How it is done: 2. Determination of the Functional Antagonism of the Test Substances on Isolated Guinea Pig Tissue in vitro
The NK-2 receptor-antagonising action of the test substances was determined on isolated gall-bladder preparations from Pirbright-White guinea pigs, held in an oxygen-saturated nutrient solution. To this end, the preparations were fastened on one hand in the nutrient solution to organ holders and on the other hand on a force meter by a thread.
In this test the NK-2 receptors present in the gall-bladder preparations were stimulated with the natural NK-2 receptor agonist neurokinin A (=NKA; 0.1 μmol/l) and the contractions of the preparations caused thereby were measured as contractility in mN (=preliminary value) measured. Then NKA was rinsed out of the preparations with NKA-free solution and the test substances were added in a concentration of 10^−7 mol/l. After two hours' incubation of the preparations with the test substances, the contractions of the preparations then still caused by renewed NKA addition were again measured and the results were given as percentages, relative to the contractions initially measured, caused solely by NKA addition. The concentration of the test substances was increased iteratively in the subsequent experiments as a function of the result in logarithmic whole or half steps, until at least one concentration above or below 50% inhibition of contraction was determined (up to at most 10^−5 mol/l). For each concentration, the average value of inhibition of contraction was calculated from 2 to 4 preparations. In each case, the concentration of half-maximum inhibition (IC50) per test substance was calculated as characteristic variable. In each case the logarithmised value of the IC50 per test substance is given as pIC50 in [mol/l].

In experiment [2] the target is T1, NK-2 receptors. Description: NK-2-receptor-antagonistic effectiveness in vivo in anaesthetised guinea pigs (NKA test stimulus). Also on record: species or system guinea pig. The following applies: for NK-2-receptor-antagonistic activity of colon motility, late drop in blood pressure and respiratory resistance (in words): cumulative administration i.v., antagonism detected 1 min. after administration had ended. From the text: 3. Determination of the NK-2-receptor-antagonistic Effectiveness of the Test Substances in vivo
The NK-2- and NK-1-antagonistic activities of the test substances were investigated in anaesthetised guinea pigs in each case after intravenous (=i.v.) and oral (=p.o.) administration in vivio. With the present test model it is possible to detect both NK-2-antagonistic effects in three different organ systems (respiratory tracts, colon and circulation) and NK-1-antagonistic effects (rapid drop in blood pressure) in an animal simultaneously.
Pirbright-White guinea pigs of a body weight of 500-700 g were anaesthetised with ketamine/xylazine (67/13 mg/kg subcutaneously, initial dose, further doses administered as required). The animals were provided with an intravenous catheter in order to administer the substance and an intra-arterial catheter to measure the blood pressure. The animals were artificially ventilated via a tracheal cannula and the respiratory pressure was recorded by means of a pressure transducer. A balloon was introduced into the distal colon of the animals for manometric recording of colon motility by means of a pressure transducer. Blood pressure, heart rate, respiratory pressure and colonic pressure were measured continuously for each animal and plotted on a recorder and by means of a digital data-processing system. Neurokinin A (=NKA; 200 pmol/animal) was administered i.v. as a bolus as a test stimulus to stimulate the NK-1- and the NK-2 receptors. An addition of NKA of this type results in a great increase in respiratory pressure (bronchoconstriction) and colonic pressure, and in a biphasic drop in blood pressure. The first phase of hypotension (=phase of maximum hypotension within the first minute after administration of NKA) is mediated via NK-1 receptors, since they can be blocked completely by specific NK-1 receptor antagonists. The second phase of delayed hypotension (=phase of maximum hypotension after 2-5 min.) on the other hand is mediated via NK-2 receptors, since they can be blocked by specific NK-2 receptor antagonists. The doses of the test substances are given as ED50 values which each result in a response to the NKA test stimulus which is reduced to 50% of the initial value, as characteristic variables for the individual measurement parameters bronchoconstriction, colonic pressure and change in blood pressure mediated by NK-1 or NK-2.
The antagonistic effects of the test substances were first investigated in cumulative form, the time of the NKA test stimulus being 1 min. after the administration of the respective doses of the test substances had ended. These ED50 values obtained from cumulative dose effect curves are plotted in Table 2 below. In order additionally to detect the variation over time of the antagonistic effects of the test substances, the action of the NKA test stimulus was determined at different times (1, 30, 60, 90, 120, 150 and 180 min.) after administration of the test substances.

Where [3] appears, read: guinea pig, iv, cumulative dosing, NKA stimulus 1 min. after administration, NK-2-mediated late drop in blood pressure, read-out: ED50 Blood pressure, i.v. after 1 min. (cumulative).
Where [4] appears, read: guinea pig, iv, cumulative dosing, NKA stimulus 1 min. after administration, respiratory resistance (bronchoconstriction), read-out: ED50 Respiratory resistance, i.v. after 1 min. (cumulative).
Where [5] appears, read: guinea pig, iv, cumulative dosing, NKA stimulus (200 pmol/animal i.v.) 1 min. after administration, colonic pressure, read-out: ED50 Colonic pressure, i.v. after 1 min. (cumulative).
[6] abbreviates: guinea pig, iv, from AUC of antagonistic effect over 120 min after administration, colonic pressure, read-out: ED50 Colonic pressure, i.v. AUC over 120 min.
Where [7] appears, read: guinea pig, iv, from AUC over 120 min after administration, NK-2-mediated drop in blood pressure, read-out: ED50 Blood pressure, i.v. AUC over 120 min.
Setting [8] is: guinea pig, iv, from AUC over 120 min after administration, respiratory resistance, read-out: ED50 Respiratory resistance, i.v. AUC over 120 min.
Where [9] appears, read: guinea pig, po, from AUC over 180 min after administration, NK-2-mediated drop in blood pressure, read-out: ED50 Blood pressure, p.o. AUC over 180 min.
Setting [10] is: guinea pig, po, from AUC over 180 min after administration, colonic pressure, read-out: ED50 Colonic pressure, p.o. AUC over 180 min.
The mark [11] stands for this setting: guinea pig, po, from AUC over 180 min after administration, respiratory resistance, read-out: ED50 Respiratory resistance, p.o. AUC over 180 min.

On NK-2 receptors [1], `CN(C[C@@H](CCN1CCN(C(c2ccsc2)[C@H](O)[C@@H](O)[C@H](O)CO)CC1)c1ccc(Cl)c(Cl)c1)C(=O)c1ccccc1` (stereo partly drawn) [Example 1, N-((2S)-2-(3,4-dichlorophenyl)-4-{4-[(2S,3R,4R)-2,3,4,5-tetrahydroxy-1-(3-thienyl)pentyl]-1-piperazinyl}butyl)-N-methylbenzamide] had an IC50 of 0.158 nM. In addition, at NK-2 receptors [2] (comparison of the Table 2 values), the “inhibition of the NK-2 mechanisms at the colon compared with bronchoconstrictive or hypotensive NK-2 effects (in words)” value is recorded as “more effective inhibition of the NK-2 mechanisms at the colon (colon preference)”. At NK-2 receptors [2], the “NK-2-receptor-antagonistic activity of colon motility, late drop in blood pressure and respiratory resistance (in words)” value (“NK-2-receptor-antagonistic activity” for short) is on record as “marked NK-2-receptor-antagonistic activity”. The ED50 at NK-2 receptors [2] (setting [3]) worked out at 0.025 µmol/kg; on NK-2 receptors [2] (setting [4]) it was 0.033 µmol/kg; at NK-2 receptors [2] (setting [5]) it was 0.017 µmol/kg; on NK-2 receptors [2] (setting [6]), 0.0009 µmol/kg; at NK-2 receptors [2] (setting [7]), 0.006 µmol/kg; at NK-2 receptors [2] (setting [8]), 0.008 µmol/kg. The figures for the ED50 on NK-2 receptors [2] (setting [9]), on NK-2 receptors [2] (setting [10]) and on NK-2 receptors [2] (setting [11]) were 2.7 µmol/kg, 0.5 µmol/kg and 1.8 µmol/kg, respectively. Further, the “onset and duration of action (in words)” value at NK-2 receptors [2] (variation over time of the antagonistic effect, guinea pig) is “slow-onset action of long duration”.
For `CC(=O)OC[C@@H](OC(C)=O)[C@H](OC(C)=O)[C@@H](OC(C)=O)C(c1ccsc1)N1CCN(CC[C@H](CN(C)C(=O)c2ccccc2)c2ccc(Cl)c(Cl)c2)CC1` (some centres unmarked) [Example 14], 2 nM corresponded to half-maximal inhibition on NK-2 receptors [1] (IC50). Further, on NK-2 receptors [2], the “NK-2-receptor-antagonistic activity” value is recorded as “marked NK-2-receptor-antagonistic activity”. Further, the ED50 on NK-2 receptors [2] (setting [3]) was found to be 0.063 µmol/kg; at NK-2 receptors [2] (setting [4]) it was 0.078 µmol/kg; at NK-2 receptors [2] (setting [5]), 0.042 µmol/kg; at NK-2 receptors [2] (setting [9]) it was 9.4 µmol/kg; on NK-2 receptors [2] (setting [10]), 3.2 µmol/kg; on NK-2 receptors [2] (setting [11]), 6.7 µmol/kg.
In the case of `CN(CC(CCN1CCN(C(c2ccco2)[C@H](O)[C@@H](O)[C@H](O)CO)CC1)c1ccc(Cl)c(Cl)c1)C(=O)c1ccccc1` (mixture of isomers) [Example 13], the 50% inhibitory concentration (IC50) against NK-2 receptors [1] was 0.398 nM. Besides, on NK-2 receptors [2], the “NK-2-receptor-antagonistic activity” value is recorded as “marked NK-2-receptor-antagonistic activity”. Further, the ED50 on NK-2 receptors [2] (setting [3]) turned out to be 0.08 µmol/kg; on NK-2 receptors [2] (setting [4]) it was 0.048 µmol/kg; on NK-2 receptors [2] (setting [5]) it was 0.019 µmol/kg; on NK-2 receptors [2] (setting [6]), 0.018 µmol/kg; on NK-2 receptors [2] (setting [7]), 0.025 µmol/kg; at NK-2 receptors [2] (setting [8]) it was 0.023 µmol/kg. Besides, the values for the ED50 at NK-2 receptors [2] (setting [9]), on NK-2 receptors [2] (setting [10]) and at NK-2 receptors [2] (setting [11]) were 24 µmol/kg, 1.9 µmol/kg and 2 µmol/kg, respectively.

Values taken from US6770649B2, “1-[1-(hetero)aryl-1-perhydroxyalkylmethyl]-piperazine compounds, process for their preparation and pharmaceutical compositions containing them” (Solvay Pharmaceuticals GmbH, priority 2001, dated 2004).
